Experimental data published in PubChem BioAssay (NCI).
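The concentration for 50% growth inhibition is given as GI50. The concentration for full growth arrest is given as TGI.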

Legend:
Experiment in all cases: NCI anticancer screen, dose series, 384-well format
[1] = system: OVCAR-3 ovarian
[2] = system: UACC-62 melanoma
[3] = system: DU-145 prostate
[4] = system: KM12 colon
[5] = system: SK-OV-3 ovarian
[6] = system: SF-295 CNS
[7] = system: HL-60(TB) leukemia
[8] = system: PC-3 prostate
[9] = system: TK-10 renal
[10] = system: MDA-MB-435 melanoma
[11] = system: M14 melanoma
[12] = system: SN12C renal
[13] = system: MOLT-4 leukemia
[14] = system: 786-0 renal
[15] = system: SK-MEL-5 melanoma
[16] = system: NCI-H23 lung
[17] = system: NCI-H522 lung
[18] = system: UACC-257 melanoma
[19] = system: HT29 colon
[20] = system: SNB-75 CNS
[21] = system: CCRF-CEM leukemia
[22] = system: SF-268 CNS
[23] = system: BT-549 breast
[24] = system: ACHN renal
[25] = system: HS 578T breast
[26] = system: HCT-15 colon
[27] = system: A549 NSCLC
[28] = system: MCF7 breast
[29] = system: T-47D breast
[30] = system: HOP-92 NSCLC
[31] = system: MDA-MB-468 breast
[32] = system: MALME-3M melanoma
[33] = system: OVCAR-8 ovarian
[34] = system: SNB-19 CNS
[35] = system: NCI/ADR-RES ovarian
[36] = system: CAKI-1 renal
[37] = system: OVCAR-4 ovarian
[38] = system: MDA-MB-231 breast
[39] = system: LOX IMVI melanoma
[40] = system: RPMI-8226 leukemia
[41] = system: NCI-H226 lung
[42] = system: IGROV1 ovarian
[43] = system: HCC-2998 colon
[44] = system: NCI-H322M lung
[45] = system: OVCAR-5 ovarian
[46] = system: EKVX NSCLC
[47] = system: NCI-H460 NSCLC
[48] = system: RXF 393 renal
[49] = system: A498 renal
[50] = system: COLO 205 colon
[51] = system: SR leukemia
[52] = system: UO-31 renal
[53] = system: SF-539 CNS
[54] = system: HOP-62 NSCLC
[55] = system: SW-620 colon
[56] = system: SK-MEL-28 melanoma
[57] = system: K-562 leukemia
[58] = system: U251 glioblastoma
[59] = system: HCT-116 colon
[60] = system: SK-MEL-2 melanoma

## C[C@H]1COCCN1c1nc(-c2cnc(N)cc2C(F)F)nc(N2CCOCC2)n1
[1]
  GI50: 270 nM
  TGI: 2930 nM
[2]
  GI50: 227 nM
  TGI: 1490 nM
[3]
  GI50: 308 nM
  TGI: > 100 µM
[4]
  GI50: 294 nM
  TGI: 12 µM
[5]
  GI50: 129 nM
  TGI: 441 nM
[6]
  GI50: 106 nM
  TGI: 463 nM
[7]
  GI50: 289 nM
  TGI: 2820 nM
[8]
  GI50: 166 nM
  TGI: 10.1 µM
[9]
  GI50: 254 nM
  TGI: 2010 nM
[10]
  GI50: 275 nM
  TGI: 2520 nM
[11]
  GI50: 191 nM
  TGI: 27.4 µM
[12]
  GI50: 138 nM
  TGI: 772 nM
[13]
  GI50: 103 nM
  TGI: 406 nM
[14]
  GI50: 385 nM
  TGI: 6.13 µM
[15]
  GI50: 143 nM
  TGI: 417 nM
[16]
  GI50: 184 nM
  TGI: 30.7 µM
[17]
  GI50: 206 nM
  TGI: 1630 nM
[18]
  GI50: 389 nM
  TGI: 3210 nM
[19]
  GI50: 263 nM
  TGI: 55.3 µM
[20]
  GI50: 117 nM
  TGI: 810 nM
[21]
  GI50: 224 nM
  TGI: 1680 nM
[22]
  GI50: 311 nM
  TGI: 36.1 µM
[23]
  GI50: 175 nM
  TGI: 758 nM
[24]
  GI50: 247 nM
  TGI: 3830 nM
[25]
  GI50: 52.8 nM
  TGI: 273 nM
[26]
  GI50: 181 nM
  TGI: 30.9 µM
[27]
  GI50: 221 nM
  TGI: 2750 nM
[28]
  GI50: 45.3 nM
  TGI: 3080 nM
[29]
  GI50: 19.7 nM
  TGI: 106 nM
[30]
  GI50: 102 nM
  TGI: 462 nM
[31]
  GI50: 172 nM
  TGI: 487 nM
[32]
  GI50: 50.7 nM
  TGI: 309 nM
[33]
  GI50: 307 nM
  TGI: > 100000 nM
[34]
  GI50: 2330 nM
  TGI: > 100 µM
[35]
  GI50: 399 nM
  TGI: > 100000 nM
[36]
  GI50: 196 nM
  TGI: 3.96 µM
[37]
  GI50: 115 nM
  TGI: 585 nM
[38]
  GI50: 248 nM
  TGI: > 100000 nM
[39]
  GI50: 242 nM
  TGI: 1170 nM
[40]
  GI50: 30.7 nM
  TGI: 155 nM
[41]
  GI50: 159 nM
  TGI: 649 nM
[42]
  GI50: 53.8 nM
  TGI: 265 nM
[43]
  GI50: 423 nM
  TGI: 12.4 µM
[44]
  GI50: 203 nM
  TGI: 10.9 µM
[45]
  GI50: 163 nM
  TGI: 1170 nM
[46]
  GI50: 189 nM
  TGI: 780 nM
[47]
  GI50: 68.7 nM
  TGI: > 100000 nM
[48]
  GI50: 315 nM
  TGI: 2880 nM
[49]
  GI50: 49.3 nM
  TGI: 447 nM
[50]
  GI50: 201 nM
  TGI: 11.8 µM
[51]
  GI50: 125 nM
  TGI: 370 nM
[52]
  GI50: 321 nM
  TGI: > 100000 nM
[53]
  GI50: 323 nM
  TGI: 5.88 µM
[54]
  GI50: 261 nM
  TGI: 4.41 µM
[55]
  GI50: 554 nM
  TGI: > 100000 nM
[56]
  GI50: 146 nM
  TGI: 890 nM
[57]
  GI50: 548 nM
  TGI: > 100000 nM

## COCCNCc1ccc(-c2cc3nccc(Oc4ccc(NC(=O)C5(C(=O)Nc6ccc(F)cc6)CC5)cc4F)c3s2)nc1
[1]
  GI50: 1590 nM
  TGI: 2960 nM
[2]
  GI50: 1240 nM
  TGI: 2510 nM
[3]
  GI50: 1750 nM
  TGI: 3.14 µM
[4]
  GI50: 30.9 nM
  TGI: 1.08 µM
[5]
  GI50: 1180 nM
  TGI: 2420 nM
[6]
  GI50: 396 nM
  TGI: 1950 nM
[7]
  GI50: 1480 nM
  TGI: 2800 nM
[8]
  GI50: 1690 nM
  TGI: 3.09 µM
[9]
  GI50: 1690 nM
  TGI: 3110 nM
[10]
  GI50: 1370 nM
  TGI: 2680 nM
[11]
  GI50: 1370 nM
  TGI: 2.67 µM
[12]
  GI50: 346 nM
  TGI: 1670 nM
[13]
  GI50: 477 nM
  TGI: 1630 nM
[14]
  GI50: 1550 nM
  TGI: 2.89 µM
[15]
  GI50: 1130 nM
  TGI: 2350 nM
[16]
  GI50: 414 nM
  TGI: 1.96 µM
[58]
  GI50: 1450 nM
  TGI: 2780 nM
[17]
  GI50: 1280 nM
  TGI: 2540 nM
[18]
  GI50: 186 nM
  TGI: 396 nM
[19]
  GI50: 574 nM
  TGI: 1.84 µM
[21]
  GI50: 1420 nM
  TGI: 2730 nM
[22]
  GI50: 1570 nM
  TGI: 2.93 µM
[23]
  GI50: 1620 nM
  TGI: 2980 nM
[24]
  GI50: 682 nM
  TGI: 1960 nM
[26]
  GI50: 1280 nM
  TGI: 2.55 µM
[27]
  GI50: 1280 nM
  TGI: 2560 nM
[28]
  GI50: 1150 nM
  TGI: 2370 nM
[29]
  GI50: 1160 nM
  TGI: 2390 nM
[30]
  GI50: 166 nM
  TGI: 1050 nM
[31]
  GI50: 1940 nM
  TGI: 3360 nM
[32]
  GI50: 1030 nM
  TGI: 2200 nM
[33]
  GI50: 1570 nM
  TGI: 2920 nM
[34]
  GI50: 1900 nM
  TGI: 3.33 µM
[59]
  GI50: 1100 nM
  TGI: 2310 nM
[35]
  GI50: 1560 nM
  TGI: 2950 nM
[36]
  GI50: 1250 nM
  TGI: 2.56 µM
[37]
  GI50: 1360 nM
  TGI: 2660 nM
[60]
  GI50: 1410 nM
  TGI: 2710 nM
[38]
  GI50: 1320 nM
  TGI: 2600 nM
[39]
  GI50: 2260 nM
  TGI: 3730 nM
[40]
  GI50: 499 nM
  TGI: 1560 nM
[41]
  GI50: 1580 nM
  TGI: 2960 nM
[42]
  GI50: 1360 nM
  TGI: 2670 nM
[43]
  GI50: 1480 nM
  TGI: 2.81 µM
[44]
  GI50: 1400 nM
  TGI: 2.72 µM
[45]
  GI50: 1630 nM
  TGI: 3100 nM
[47]
  GI50: 1450 nM
  TGI: 2790 nM
[48]
  GI50: 768 nM
  TGI: 2050 nM
[49]
  GI50: 1410 nM
  TGI: 2720 nM
[50]
  GI50: 1140 nM
  TGI: 2.37 µM
[51]
  GI50: 1130 nM
  TGI: 2340 nM
[52]
  GI50: 1380 nM
  TGI: 2700 nM
[53]
  GI50: 466 nM
  TGI: 1.91 µM
[54]
  GI50: 1810 nM
  TGI: 3.21 µM
[55]
  GI50: 1260 nM
  TGI: 2530 nM
[56]
  GI50: 1430 nM
  TGI: 2750 nM
[57]
  GI50: 101 nM
  TGI: 219 nM
